From the Biogen ADME set (Fang et al. 2023) come the findings set out here.

For the data set the following is noted: for aqueous solubility: pH 6.8.

Converted amounts (≈) assume the structure as drawn. Bounds are passed on as bounds.

With `Cc1cc(Nc2cnccn2)cc(C2CCCN(CC(=O)N3CCCC3)C2)n1` (stereo unspecified), the MDR1-MDCK efflux ratio came out at 26.7; the fraction unbound, human plasma is 0.439; the fraction unbound, rat plasma stood at 0.429; the intrinsic clearance, human liver microsomes is 5.43 mL/min/kg. Moreover, the intrinsic clearance, rat liver microsomes came to 98.6 mL/min/kg.

A word on the aqueous solubility: it is the dissolved amount per volume that the medium holds. A low value points to a poorly soluble substance. For the compound `Cc1ccc(CNC/C=C/c2ccccc2)cn1`, the MDR1-MDCK efflux ratio was 0.387; the intrinsic clearance, human liver microsomes amounted to 28.5 mL/min/kg; the intrinsic clearance, rat liver microsomes was found to be 410 mL/min/kg; the aqueous solubility turned out to be 29.1 µg/mL (≈ 122 µM).

Take `Cc1ccccc1CS(=O)(=O)c1ncc(Cl)c(C(=O)Nc2sc3c(c2C#N)CCCC3)n1`: the intrinsic clearance, human liver microsomes is 568 mL/min/kg and the intrinsic clearance, rat liver microsomes turned out to be 2120 mL/min/kg.

`Cc1ccn(CCC(=O)N2CCc3nc4sccc4c(=O)n3CC2)n1` had an intrinsic clearance, human liver microsomes of 17 mL/min/kg and an intrinsic clearance, rat liver microsomes of 242 mL/min/kg.

In the case of `CN(CCN1CCOC1=O)C(=O)c1cc2cc(Br)ccc2o1`, the MDR1-MDCK efflux ratio amounted to 2.28; the intrinsic clearance, human liver microsomes is 13.2 mL/min/kg; the intrinsic clearance, rat liver microsomes is 107 mL/min/kg; the aqueous solubility is 50.9 µg/mL (≈ 139 µM).

Take `CC(C)(O)CCn1cc2cc(NC(=O)c3cccc(C(F)F)n3)c(OCC3COC3)cc2n1`: the MDR1-MDCK efflux ratio worked out at 11.7; the intrinsic clearance, human liver microsomes is 7.8 mL/min/kg; the intrinsic clearance, rat liver microsomes is 72.1 mL/min/kg.

As for `Cc1ccc(-n2nc(C(=O)N3CC(O)C3)c3c2CCCC3)cc1`, the MDR1-MDCK efflux ratio came out at 5.67; the intrinsic clearance, human liver microsomes amounted to 53.3 mL/min/kg; the intrinsic clearance, rat liver microsomes was determined as 182 mL/min/kg; the aqueous solubility was determined as 36.5 µg/mL (≈ 117 µM).

For the compound `Cc1cc(C(F)(F)F)nc(N(C)Cc2c(C)noc2C)n1`, the intrinsic clearance, human liver microsomes stood at 91.7 mL/min/kg and the intrinsic clearance, rat liver microsomes was found to be 589 mL/min/kg.

Compound `Cc1cc(Nc2cc(N3CCN(C)CC3)nc(/C=C/c3ccccc3)n2)n[nH]1` had an aqueous solubility of 0.2 µg/mL (≈ 0.533 µM).

Take `Cc1c[nH]c2nccc(Oc3c(F)cc(Nc4cc(Cl)nc(N)n4)cc3F)c12`: the MDR1-MDCK efflux ratio was determined as 2.53; the fraction unbound, human plasma was 0.0006; the fraction unbound, rat plasma stood at 0.00206; the intrinsic clearance, human liver microsomes came out at 14.3 mL/min/kg. The compound further returned an intrinsic clearance, rat liver microsomes of 173 mL/min/kg.

Regarding `C#CCNC(=O)Cc1coc(-c2ccccc2)n1`, the MDR1-MDCK efflux ratio was 0.719; the intrinsic clearance, human liver microsomes was 26.9 mL/min/kg; the intrinsic clearance, rat liver microsomes stood at 142 mL/min/kg.

Take `N#Cc1cnc2cc(F)cc(F)c2c1NC1CCN(CC(N)=O)CC1`: the MDR1-MDCK efflux ratio came to 15; the intrinsic clearance, human liver microsomes is at most 4.74 mL/min/kg; the intrinsic clearance, rat liver microsomes is 27.4 mL/min/kg.

Take `CC(C)(C)c1cc(NC(=O)Nc2ccc(-c3cn4c(n3)sc3cc(OCCN5CCOCC5)ccc34)cc2)no1`: the aqueous solubility was found to be 0.3 µg/mL (≈ 0.535 µM).

In the case of `C[C@@H](c1ccc(F)cc1)n1nnc2cnc3ccc(-c4ccc5ocnc5c4)cc3c21`, the aqueous solubility was determined as 0.47 µg/mL (≈ 1.15 µM).

`NC[C@@](O)(c1ccc(Cl)cc1)c1ccc(-c2cn[nH]c2)cc1`: the MDR1-MDCK efflux ratio was determined as 1.61; the intrinsic clearance, human liver microsomes was at most 4.74 mL/min/kg; the intrinsic clearance, rat liver microsomes stood at 28 mL/min/kg.

Compound `COCc1ncc(CN2CCC(Oc3ccccc3C)CC2)cn1` gave an intrinsic clearance, human liver microsomes of 23.1 mL/min/kg and an intrinsic clearance, rat liver microsomes of 180 mL/min/kg.

In the case of `CN(Cc1nc(N)c2ccccc2n1)Cc1ccc(F)cc1F`, the MDR1-MDCK efflux ratio was 3.49; the intrinsic clearance, human liver microsomes amounted to 54 mL/min/kg; the intrinsic clearance, rat liver microsomes is 1970 mL/min/kg; the aqueous solubility is 43.1 µg/mL (≈ 137 µM).

In turn, `N#Cc1nc(-c2ccccc2)oc1NCc1ccccc1` returned an intrinsic clearance, human liver microsomes of 197 mL/min/kg and an intrinsic clearance, rat liver microsomes of 2470 mL/min/kg.

Turning to `CC(C)NC(=O)N1CC[C@H](NC2=Nc3cc(F)ccc3N(CC(F)F)c3ccc(Cl)cc32)C1`, the MDR1-MDCK efflux ratio is 23.6; the intrinsic clearance, human liver microsomes came out at 180 mL/min/kg; the intrinsic clearance, rat liver microsomes was 783 mL/min/kg; the aqueous solubility is 28 µg/mL (≈ 58.3 µM).

For the compound `COc1cc(C(=O)O)c(N)c(OC)c1OC`, the MDR1-MDCK efflux ratio was 1.69; the intrinsic clearance, human liver microsomes was at most 4.74 mL/min/kg; the intrinsic clearance, rat liver microsomes was at most 10.7 mL/min/kg; the aqueous solubility was 53.9 µg/mL (≈ 237 µM).

On to `CN(Cc1ccc(N)nc1)c1nc(C(F)(F)F)cs1`, for which the MDR1-MDCK efflux ratio amounted to 0.598; the intrinsic clearance, human liver microsomes was at most 4.74 mL/min/kg; the intrinsic clearance, rat liver microsomes was determined as 116 mL/min/kg.

For `CC(C)CN1CC[C@H](c2nc3ccc(C#N)cc3[nH]2)C1`, the MDR1-MDCK efflux ratio amounted to 1.46; the intrinsic clearance, human liver microsomes was found to be 6.69 mL/min/kg; the intrinsic clearance, rat liver microsomes was determined as 76.3 mL/min/kg; the aqueous solubility stood at 36.7 µg/mL (≈ 137 µM).

`COc1cc(OCc2ccccn2)ccc1/C=C/c1cc(/C=C/c2ccc3cc[nH]c3c2)[nH]n1` had an aqueous solubility of 0.61 µg/mL (≈ 1.36 µM).

Consider `Nc1nncc(-c2ccccc2OC(F)F)n1`, for which the MDR1-MDCK efflux ratio was found to be 0.709; the intrinsic clearance, human liver microsomes is at most 4.74 mL/min/kg; the intrinsic clearance, rat liver microsomes was at most 10.7 mL/min/kg; the aqueous solubility amounted to 38.9 µg/mL (≈ 163 µM).

For the compound `CCc1ncnc(N(C)Cc2ccc(N)nc2)c1F`, the MDR1-MDCK efflux ratio was 0.635; the intrinsic clearance, human liver microsomes was at most 4.74 mL/min/kg; the intrinsic clearance, rat liver microsomes was determined as 44.2 mL/min/kg; the aqueous solubility came to 34.9 µg/mL (≈ 134 µM).

For the compound `Cc1nn(C)c(C)c1CCC(=O)N1CCCc2ncccc21`, the MDR1-MDCK efflux ratio came to 22.7; the intrinsic clearance, human liver microsomes amounted to 79.9 mL/min/kg; the intrinsic clearance, rat liver microsomes stood at 449 mL/min/kg; the aqueous solubility is 54.2 µg/mL (≈ 182 µM).

With `CN(c1ccc(NC(=O)Nc2ccc(OC(F)(F)F)cc2)cc1)c1ccnc(Nc2cccc(S(N)(=O)=O)c2)n1`, the MDR1-MDCK efflux ratio is 8.5; the intrinsic clearance, human liver microsomes was at most 4.74 mL/min/kg; the intrinsic clearance, rat liver microsomes was at most 10.7 mL/min/kg; the aqueous solubility came out at 1.95 µg/mL (≈ 3.4 µM).

For `Cc1cc2cc(C(=O)N(C)CCC(=O)O)oc2cc1C`, the MDR1-MDCK efflux ratio is 1.72; the intrinsic clearance, human liver microsomes is at most 4.74 mL/min/kg; the intrinsic clearance, rat liver microsomes was at most 10.7 mL/min/kg; the aqueous solubility came out at 47 µg/mL (≈ 171 µM).

`Cc1cc(C(=O)N(C)Cc2ccccc2C)[nH]n1`: the intrinsic clearance, human liver microsomes is at most 4.74 mL/min/kg and the intrinsic clearance, rat liver microsomes came out at 239 mL/min/kg.

For the compound `COCC(=O)Nc1nc(C)c(C)s1`, the MDR1-MDCK efflux ratio amounted to 0.659; the intrinsic clearance, human liver microsomes was found to be 18.9 mL/min/kg; the intrinsic clearance, rat liver microsomes was determined as 71.3 mL/min/kg; the aqueous solubility turned out to be 25.6 µg/mL (≈ 128 µM).

On to `O=C(c1ccc(Cl)cc1)N1CCC(c2nnc3n2CCCC3)CC1`, for which the MDR1-MDCK efflux ratio amounted to 128; the intrinsic clearance, human liver microsomes was at most 4.74 mL/min/kg; the intrinsic clearance, rat liver microsomes is at most 10.7 mL/min/kg.

Regarding `Cn1ccnc1CNc1cc(Br)ccc1-n1cccn1`, the MDR1-MDCK efflux ratio was 0.841; the intrinsic clearance, human liver microsomes amounted to 31.6 mL/min/kg; the intrinsic clearance, rat liver microsomes was 291 mL/min/kg; the aqueous solubility is 48.6 µg/mL (≈ 146 µM).

Turning to `Cn1cnnc1CNc1ccccc1C#N`, the MDR1-MDCK efflux ratio is 4.56; the intrinsic clearance, human liver microsomes was at most 4.74 mL/min/kg; the intrinsic clearance, rat liver microsomes was at most 10.7 mL/min/kg; the aqueous solubility was determined as 33.6 µg/mL (≈ 158 µM).

For `COc1ccc2nc(C)nc(N3CC(O)(c4ccc(F)cc4)C3)c2c1`, the MDR1-MDCK efflux ratio was 3.87; the intrinsic clearance, human liver microsomes is 26.9 mL/min/kg; the intrinsic clearance, rat liver microsomes was found to be 468 mL/min/kg; the aqueous solubility was determined as 19.4 µg/mL (≈ 57.3 µM).

`Cc1ccc2oc([C@H]3CCN(Cc4ccc(C#N)cc4)C3)nc2c1` returned an intrinsic clearance, human liver microsomes of 41.5 mL/min/kg; an intrinsic clearance, rat liver microsomes of 351 mL/min/kg; an aqueous solubility of 5.4 µg/mL (≈ 17 µM).

On to `CN(C(=O)CSC(C)(C)C)c1ccccc1C#N`, for which the MDR1-MDCK efflux ratio amounted to 0.808; the intrinsic clearance, human liver microsomes turned out to be 47.3 mL/min/kg; the intrinsic clearance, rat liver microsomes worked out at 687 mL/min/kg.

On to `Fc1ccc(-n2cc(/C=C/c3ccnnc3)nn2)cc1Cl`, for which the MDR1-MDCK efflux ratio came out at 0.642 and the aqueous solubility came to 0.27 µg/mL (≈ 0.895 µM).

With `CCN(Cc1ccccc1)C(=O)c1cccnc1N`, the MDR1-MDCK efflux ratio was found to be 0.65; the intrinsic clearance, human liver microsomes was at most 4.74 mL/min/kg; the intrinsic clearance, rat liver microsomes amounted to 174 mL/min/kg; the aqueous solubility came to 36.7 µg/mL (≈ 144 µM).

With `CCC(CC)N1CC[C@H](O)[C@@](O)(COc2cc(C)ccc2Cl)C1`, the MDR1-MDCK efflux ratio is 1.18; the intrinsic clearance, human liver microsomes was 371 mL/min/kg; the intrinsic clearance, rat liver microsomes came to 4650 mL/min/kg.

With `c1cncc(-c2ccnn2CN2CCOCC2)c1`, the aqueous solubility was 17.3 µg/mL (≈ 71 µM).

Regarding `Cc1nn(C)c2ncnc(N(C)Cc3cccc(Cl)c3)c12`, the MDR1-MDCK efflux ratio was determined as 0.569; the intrinsic clearance, human liver microsomes came out at 28.3 mL/min/kg; the intrinsic clearance, rat liver microsomes is 652 mL/min/kg; the aqueous solubility stood at 22.5 µg/mL (≈ 74.5 µM).

In the case of `O=C(COc1ncnc2ccccc12)NC12CC3CC(CC(C3)C1)C2`, the MDR1-MDCK efflux ratio was 1.2; the intrinsic clearance, human liver microsomes came out at 62.2 mL/min/kg; the intrinsic clearance, rat liver microsomes is 468 mL/min/kg; the aqueous solubility stood at 60.3 µg/mL (≈ 179 µM).

Turning to `Cc1ccccc1CNC(=O)c1ccc(-n2ccnc2)nc1`, the MDR1-MDCK efflux ratio was 0.867; the intrinsic clearance, human liver microsomes is at most 4.74 mL/min/kg; the intrinsic clearance, rat liver microsomes was determined as 35.3 mL/min/kg; the aqueous solubility is 43.6 µg/mL (≈ 149 µM).

In turn, `O=C(CCc1cccs1)Nc1ccc(N2CCCC2)cn1` registered an aqueous solubility of 1.18 µg/mL (≈ 3.91 µM).

For `N#CCCN(C(=O)c1sccc1C#N)C12CC3CC(CC(C3)C1)C2`, the MDR1-MDCK efflux ratio amounted to 1.16; the intrinsic clearance, human liver microsomes came to 320 mL/min/kg; the intrinsic clearance, rat liver microsomes is 1600 mL/min/kg; the aqueous solubility was 7.8 µg/mL (≈ 23 µM).

As to `O=S1(=O)CCN(C2CCN(CC(F)(F)F)CC2)CC1`, the MDR1-MDCK efflux ratio worked out at 0.765; the intrinsic clearance, human liver microsomes is at most 4.74 mL/min/kg; the intrinsic clearance, rat liver microsomes was 20.1 mL/min/kg.

With `CCc1nnc(Nc2cccc(C3CCCN(CC(=O)N4CCCC4)C3)n2)s1` (stereo unspecified), the MDR1-MDCK efflux ratio stood at 35; the intrinsic clearance, human liver microsomes was 48.7 mL/min/kg; the intrinsic clearance, rat liver microsomes came out at 186 mL/min/kg; the aqueous solubility turned out to be 53.5 µg/mL (≈ 134 µM).

Turning to `c1nn(C2CCOCC2)cc1Nc1ncc2nnn(-c3ccc4cn[nH]c4c3)c2n1`, the MDR1-MDCK efflux ratio came out at 531; the intrinsic clearance, human liver microsomes was determined as 96.8 mL/min/kg; the intrinsic clearance, rat liver microsomes amounted to 765 mL/min/kg.
